According to PMC3683333, “^11C-LY2428703, a positron emission tomographic radioligand for the metabotropic glutamate receptor 1, is unsuitable for imaging in monkey and human brains” (EJNMMI Research, 2013):
Where two headings read alike, the source gives them in different places.

Columns and labels:
human mGluR1s = target: human mGluR1s; set-up: method as in PMID 23135321; details: cited from earlier work
mGluR1 [1] = tested on: mGluR1; set-up: method as in PMID 23135321; details: PET; cited from earlier work
[2] = tested on: ABCB1 (permeability glycoprotein (P-gp)) and ABCG2 (breast cancer resistance protein (BCRP)); set-up: method as in PMID 23135321; details: genetic knockout mice for ABCB1 and ABCG2; cited from earlier work
other human mGluRs = tested on: other human mGluRs; set-up: method as in PMID 23135321; details: cited from earlier work
[3] = set-up: method as in earlier work; details: cited from earlier work; for Exposure SUV (0 to 20): AUC of plasma concentration vs. time, 0 to 20 min, data of previous studies; for fp: human plasma; for Brain peak SUV: human
[4] = Brain exposure comparison of five radioligands; type: in vivo, human
Description: Another complicating factor is low delivery to brain (i.e., low drug exposure), which may have cause low brain uptake. We compared five different radioligands from previous studies with regard to exposure to brain (Table 3) and measured the area under the curve of plasma concentration vs. time from 0 to 20 min. […] The effective exposure was thus named because only the free concentration of drug can cross the blood–brain barrier. ^11C-LY2428703 had the highest exposure value among the tracers tested. This high exposure was due to the slow wash-out of the tracer from the vascular compartment and to negligible metabolism in plasma, that is, parent radioligand represented 99% of plasma radioactivity even at the end of the 2-h scanning session.

mGluR1 [5] = target: mGluR1; set-up: method as in PMID 23135321; details: rats; read-out: in vitro affinity; cited from earlier work
[6] = cited from earlier work
[7] = fp × AUC0 to 20, comparators from data of refs 22, 19, 23, 24

Structure (SMILES)	Exposure SUV (0 to 20) [3] [SUV]	fp [3] [%]	Brain peak SUV [3] [SUV]	other results
COc1ccc(-c2nsc(NC(=O)[C@@H]3C[C@H]3C)c2C)cc1 [LY2428703]	–	–	–	Ki (human mGluR1s; females, read-out: Ki): 1.4 ± 0.4 nM; Ki (human mGluR1s; males, read-out: Ki): 2.7 ± 0.5 nM; signal in rat cerebellum (mGluR1 [1]): large specific and displaceable signal; substrate for efflux transporters at the blood–brain barrier [2]: not a substrate; affinity for other human mGluRs (other human mGluRs): no significant affinity
[11CH3]Oc1ccc([C@@H]2CNC(=O)C2)cc1OC1CCCC1 [^11C-( R )-rolipram]	124.9	6.4	2 to 2.5	Effective exposure (E × fp) ([4]; in vivo): 8.0
COc1ccc(-c2nsc(NC(=O)[C@@H]3C[C@H]3C)c2C)cc1 [^11C-LY2428703]	–	–	–	Ki (human mGluR1s; humans, read-out: in vitro affinity): ~2 nM; Ki (mGluR1 [5]): 0.6 nM
[11CH3]NC(=O)[C@@H](Cc1ccccc1F)CN1CCC2(CC1)OCCc1cc(F)sc12 [^11C-NOP1A]	36.7	10.1	5 to 7	Effective exposure (E × fp) [4, 7]: 3.7
CC(C)Nc1cc(-c2csc(N(C)C(=O)c3ccc([18F])cc3)n2)ncn1 [^18F-FITM, reference compound]	–	–	–	LogD [6]: 1.5
C[C@@H](N[C@@H]1C[C@H](c2cccc(OC[18F])c2)N(c2ccc(C(F)(F)F)cc2)C1=O)c1ccccc1 [^18F-FMPEP]	47.8	0.63	3 to 4	Effective exposure (E × fp) [4, 7]: 0.30
N#Cc1cc(F)cc(C#Cc2csc(C[18F])n2)c1 [^18F-SP203]	37.0	5.2	~6	Effective exposure (E × fp) ([4]; in vivo): 1.9
